Results as given in patent US20240238304A1, “Small Molecule Degraders of DOT1L and Uses Thereof” (Northwestern University, priority 2022, published 2024).

Assays:
DOT1L [1] = target: T1, DOT1L (Homo sapiens, UniProt Q8TEK3); experiment: Screening of PROTAC degraders of DOT1L: western blotting of nuclear extract; format: cell-based; conditions: 1 μM, 48 h (2 days) treatment, LNCaP cell line, Lamin B loading control
T1 construct: nuclear protein was extracted using NE-PER Nuclear and Cytoplasmic Extraction Reagents; endogenous in cells; host or cells: LNCaP
T1 sequence (Q8TEK3 whole entry): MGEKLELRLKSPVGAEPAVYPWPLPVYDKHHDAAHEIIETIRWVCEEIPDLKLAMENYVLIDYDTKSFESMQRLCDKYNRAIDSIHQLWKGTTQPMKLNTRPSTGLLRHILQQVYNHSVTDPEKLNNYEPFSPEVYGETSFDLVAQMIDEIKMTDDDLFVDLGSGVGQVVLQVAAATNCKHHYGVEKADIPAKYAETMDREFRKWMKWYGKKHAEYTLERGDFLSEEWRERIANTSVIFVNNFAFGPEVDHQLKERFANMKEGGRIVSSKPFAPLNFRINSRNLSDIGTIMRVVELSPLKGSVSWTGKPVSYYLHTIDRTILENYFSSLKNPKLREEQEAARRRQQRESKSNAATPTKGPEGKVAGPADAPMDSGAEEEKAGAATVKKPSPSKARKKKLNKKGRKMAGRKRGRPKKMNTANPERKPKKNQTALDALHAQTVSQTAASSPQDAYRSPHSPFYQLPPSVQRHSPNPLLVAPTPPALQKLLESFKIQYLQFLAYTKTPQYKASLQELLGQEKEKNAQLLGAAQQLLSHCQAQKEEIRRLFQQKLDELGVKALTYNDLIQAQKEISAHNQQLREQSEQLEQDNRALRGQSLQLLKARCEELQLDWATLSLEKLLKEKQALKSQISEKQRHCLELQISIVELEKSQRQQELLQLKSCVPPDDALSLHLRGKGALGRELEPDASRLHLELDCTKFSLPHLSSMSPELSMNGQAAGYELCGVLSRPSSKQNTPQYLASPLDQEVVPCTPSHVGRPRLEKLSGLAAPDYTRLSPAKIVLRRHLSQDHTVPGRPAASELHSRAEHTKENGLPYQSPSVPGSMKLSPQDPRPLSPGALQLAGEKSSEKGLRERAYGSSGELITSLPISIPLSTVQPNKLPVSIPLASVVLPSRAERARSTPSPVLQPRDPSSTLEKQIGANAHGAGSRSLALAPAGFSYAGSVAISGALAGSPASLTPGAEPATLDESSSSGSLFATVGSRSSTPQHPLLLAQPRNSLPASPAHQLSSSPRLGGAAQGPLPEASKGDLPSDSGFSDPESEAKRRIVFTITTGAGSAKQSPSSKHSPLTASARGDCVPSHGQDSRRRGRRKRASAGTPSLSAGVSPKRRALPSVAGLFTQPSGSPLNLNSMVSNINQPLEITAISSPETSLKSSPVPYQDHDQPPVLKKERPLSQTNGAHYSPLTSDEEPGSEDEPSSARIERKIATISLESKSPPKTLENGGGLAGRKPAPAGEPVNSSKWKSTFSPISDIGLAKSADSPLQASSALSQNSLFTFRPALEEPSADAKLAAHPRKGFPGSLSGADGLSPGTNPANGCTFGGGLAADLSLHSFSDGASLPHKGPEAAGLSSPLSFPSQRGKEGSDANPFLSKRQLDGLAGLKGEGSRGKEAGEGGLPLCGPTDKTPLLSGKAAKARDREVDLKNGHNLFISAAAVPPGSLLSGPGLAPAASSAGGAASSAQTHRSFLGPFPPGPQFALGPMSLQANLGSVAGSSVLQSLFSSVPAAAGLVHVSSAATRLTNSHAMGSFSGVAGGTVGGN
Protocol: LNCaP cells were cultured in complete RPMI1640 media. 70-80% confluent of cells were treated with 1 μM PROTAC degraders of DOT1L (Group A-D), 1 μM parent compound 534, 1 μM EPZ5676, and DMSO (Vehicle) for 48 h. Then, nuclear protein was extracted using NE-PER Nuclear and Cytoplasmic Extraction Reagents (Thermo Scientific 78833) followed by western blotting. Protein band intensity was measured by Image J.
(§1) Nuclear protein extracts were separated by Bolt™ 4-12% Bis-Tris Plus Gels (Invitrogen) and transferred to PVDF membranes by wet transfer. The membranes were blocked with 5% Blotting-Grade Blocker (Bio-Rad) in Tris-buffered saline with 0.5% Tween 20 (TBST) for 1 h at room temperature, and then incubated overnight at 4° C. in blocking buffer with primary antibody including rabbit DOT1L (D1W4Z) mAb1:3000 (CellSignalingTechnology, Cat #77087) and goat lamin B(C-20) pAb 1:1000 (Santa Cruz Biotechnology, Cat #sc-6216). After incubation with HRP-conjugated goat anti-rabbit secondary antibody 1:10,000 (Bio-Rad, Cat #170-6515) or HRP-conjugated donkey anti-goat secondary antibody 1:3000 (Santa Cruz Biotechnology, Cat #sc-2020) for 1 h, the membranes were detected using Super Signal West Femto (Thermo Fisher Scientific, Cat #34096).

DOT1L [2] = target: T1, DOT1L; experiment: Time-course analysis of DOT1L degradation: western blotting of nuclear extract; format: cell-based; conditions: 1 μM, multiple time points 1 h to 72 h, LNCaP cell line, nuclear extraction
Protocol: LNCaP cells were culturedincompleteRPMIl640 media. 70-80% confluent of cells were treated with 1 μM 705 (Group D), 1 μM 588 (Group A), 1 μM 593 (Group C), 1uM 534 (parent), 1 μM EPZ5676, and DMSO for 1 h, 2 h, 6 h, 24 h, 48 h, and 72 h. Then, nuclear protein was extracted using NE-PER Nuclear and Cytoplasmic Extraction Reagents (Thermo Scientific 78833) followed by western blotting. Protein band intensity was measured by Image J.
as §1

COc1nc(Nc2cc(S(C)(=O)=O)ccc2N[C@@H](c2cccc3c2OC(F)(F)O3)c2ncccc2Cl)nc(N2CCNCC2)n1 [Compound 534] was tested. Which “DOT1L degradation (western blot, nuclear extraction)” value (DOT1L [1]) did it give?
The value was “didn't degrade DOT1L protein”.

What about the “DOT1L degradation over time (order of degradation)” value (DOT1L [2]) of the same molecule?
The value was “didn't degrade DOT1L until 72 h”.

Which “DOT1L degradation (western blot, nuclear extraction)” value (DOT1L [1]) does the source give for COc1nc(Nc2cc(S(C)(=O)=O)ccc2N[C@@H](c2cccc3c2OC(F)(F)O3)c2ncccc2Cl)nc(N2CCN(CCOCCNC(=O)COc3cccc4c3C(=O)N(C3CCC(=O)NC3=O)C4=O)CC2)n1 (stereo partly drawn) [Compound 588] here?
Its value is “accelerated the most DOT1L degradation”.

What about the “DOT1L degradation over time (order of degradation)” value (DOT1L [2]) of the same molecule?
The value was “degraded DOT1L protein in this order”.

Which results are given for CC(C)N(C[C@H]1O[C@@H](n2cnc3c(N)ncnc32)[C@H](O)[C@@H]1O)[C@H]1C[C@@H](CCc2nc3cc(C(C)(C)C)ccc3[nH]2)C1 [EPZ5676, reference compound]?
DOT1L degradation (western blot, nuclear extraction) (DOT1L [1]): didn't degrade DOT1L protein; DOT1L degradation over time (order of degradation) (DOT1L [2]): didn't degrade DOT1L until 72 h
